Reference: US20260223850A1, “SUBSTITUTED PYRROLIDONE COMPOUND, PREPARATION METHOD THEREFOR, COMPOSITION AND APPLICATION THEREOF” (QINGDAO KINGAGROOT CHEMICAL COMPOUND CO., LTD., priority 2023, published 2026)

Experiments:
Assay in all cases: Seedling stage sealing experiment for water-seeding
Type in all cases: in vivo
[1] = tested on: Echinochloa crusgalli; conditions: 120 g a.i./ha, seedling stage sealing, 15 days, fresh weight control rate
[2] = tested on: Echinochloa phyllopogon; conditions: 120 g a.i./ha, seedling stage sealing, 15 days, fresh weight control rate
Outline: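 Water-seeding seedling stage test: broadcast seeds, cover with soil, keep bowls moist in a water box; spray compound (acetone, diluted in water) at 120, 60, 30, 15 g a.i./ha; culture 15 d in greenhouse; grade 0–9 by fresh-weight growth control; mean of 3.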

[3] = tested on: Leptochloa chinensis; conditions: 120 g a.i./ha, 15 days, fresh weight control rate
Excerpt: (1) Seedling Stage Sealing Experiment for Water-Seeding:
The activity level criteria for plant damage (i.e., growth control rate) are as follows: • Level 9: completely dead; • Level 8: growth control rate greater than or equal to 90% and less than 100%; • Level 7: growth control rate greater than or equal to 80% and less than 90%; • Level 6: growth control rate greater than or equal to 70% and less than 80%; • Level 5: growth control rate greater than or equal to 50% and less than 70%; • Level 4: growth control rate greater than or equal to 30% and less than 50%; • Level 3: growth control rate greater than or equal to 20% and less than 30%; • Level 2: growth control rate greater than or equal to 10% and less than 20%; • Level 1: growth control rate less than 10%; • Level 0: no effect.
The above growth control rates are fresh weight control rates.
Echinochloa phyllopogon, Digitaria sanguinalis, Huaidao (rice cultivar), etc. were broadcasted on the surface of nutrition bowls filled with soil and fully covered by soil. The foregoing well-prepared nutrition bowls were then placed in a cultivation box with water filled to a suitable height to keep the soil in the nutrition bowls moist. A test compound of the present invention was individually dissolved with acetone, then diluted into solution of a certain concentration using a certain amount of water, and sprayed using a spray tower. The plants were placed on a greenhouse seedbed and cultured for 15 days, and the experimental results were then collected. The compound was applied at 120, 60, 30 and 15 g a.i./ha in triplicate, and the results were averaged.

Row | Structure (SMILES) | Echinochloa crusgalli activity level (growth control rate) [1] | Echinochloa phyllopogon activity level (growth control rate) [2] | Leptochloa chinensis activity level (growth control rate) [3]
1 | CC(C)c1cccc([C@H]2CN(C)C(=O)[C@@H]2C(=O)Nc2cnn(C)c2Cl)c1 [20′] | 9 | 8 (Level 8: growth control rate greater than or equal to 90% and less than 100%) | 9
2 | CN1C[C@H](c2cccc(C(F)(F)F)c2)[C@@H](C(=O)Nc2cnn(C)c2C2CC2)C1=O [195′] | 9 | 7 (Level 7: growth control rate greater than or equal to 80% and less than 90%) | 9
3 | CC(C)n1ncc(NC(=O)[C@H]2C(=O)N(C)C[C@@H]2c2cc(F)cc(C(F)(F)F)c2)c1Cl [291′] | 9 | 9 | 9
4 | CN1C[C@H](c2ccc(F)c(Cl)c2)[C@@H](C(=O)Nc2c(O)nn(C)c2F)C1=O [311′] | 9 | 8 (Level 8: growth control rate greater than or equal to 90% and less than 100%) | 9
5 | CN1CC(c2cc(F)c(F)c(F)c2)C(C(=O)Nc2cnn(C)c2F)C1=O (stereo not drawn) [Compound 323] | 5 (Level 5: growth control rate greater than or equal to 50% and less than 70%) | 5 (Level 5: growth control rate greater than or equal to 50% and less than 70%) | 6 (Level 6: growth control rate greater than or equal to 70% and less than 80%)
6 | CCn1ncc(NC(=O)C2C(=O)N(C)CC2c2cccc(C(F)(F)F)c2)c1Cl (stereo not drawn) [Compound 95] | 6 (Level 6: growth control rate greater than or equal to 70% and less than 80%) | 6 (Level 6: growth control rate greater than or equal to 70% and less than 80%) | 9
7 | CCc1c(NC(=O)[C@H]2C(=O)N(C)C[C@@H]2c2cccc(C(F)(F)F)c2)cnn1C [190′] | 9 | 8 (Level 8: growth control rate greater than or equal to 90% and less than 100%) | 9
8 | CC(C)c1c(NC(=O)[C@H]2C(=O)N(C)C[C@@H]2c2cccc(C(F)(F)F)c2)cnn1C [194′] | 5 (Level 5: growth control rate greater than or equal to 50% and less than 70%) | 5 (Level 5: growth control rate greater than or equal to 50% and less than 70%) | 6 (Level 6: growth control rate greater than or equal to 70% and less than 80%)
9 | CN1C[C@H](c2cc(F)cc(F)c2)[C@@H](C(=O)Nc2c(O)nn(C)c2F)C1=O [263′] | 9 | 8 (Level 8: growth control rate greater than or equal to 90% and less than 100%) | 9
10 | COc1cc(C2CN(C)C(=O)C2C(=O)Nc2cnn(C)c2Cl)ccc1F (stereo not drawn) [Compound 320] | 6 (Level 6: growth control rate greater than or equal to 70% and less than 80%) | 6 (Level 6: growth control rate greater than or equal to 70% and less than 80%) | 5 (Level 5: growth control rate greater than or equal to 50% and less than 70%)
